Experimental data as given in patent US12492188B2, “1H-benzo[D]imidazole derivatives as TLR9 inhibitors for the treatment of fibrosis” (BRISTOL-MYERS SQUIBB COMPANY, priority 2020, dated 2025).
Where two headings read alike, the source gives them in different places.

Key:
Assay type in all cases: cell-based
human TLR7 = target: T1, human TLR7 (Homo sapiens, UniProt Q9NYK1); assay: TLR7 inhibition reporter assay (HEK-Blue cells, secreted embryonic alkaline phosphatase reporter); conditions: HEK-Blue cells overexpressing human TLR7, stimulated with gardiquimod 7.5 μM; read-out: TLR 7 IC50
T1 construct: host or cells: HEK-Blue cells (HEK293-derived reporter line)
T1 sequence (Q9NYK1 27-1049): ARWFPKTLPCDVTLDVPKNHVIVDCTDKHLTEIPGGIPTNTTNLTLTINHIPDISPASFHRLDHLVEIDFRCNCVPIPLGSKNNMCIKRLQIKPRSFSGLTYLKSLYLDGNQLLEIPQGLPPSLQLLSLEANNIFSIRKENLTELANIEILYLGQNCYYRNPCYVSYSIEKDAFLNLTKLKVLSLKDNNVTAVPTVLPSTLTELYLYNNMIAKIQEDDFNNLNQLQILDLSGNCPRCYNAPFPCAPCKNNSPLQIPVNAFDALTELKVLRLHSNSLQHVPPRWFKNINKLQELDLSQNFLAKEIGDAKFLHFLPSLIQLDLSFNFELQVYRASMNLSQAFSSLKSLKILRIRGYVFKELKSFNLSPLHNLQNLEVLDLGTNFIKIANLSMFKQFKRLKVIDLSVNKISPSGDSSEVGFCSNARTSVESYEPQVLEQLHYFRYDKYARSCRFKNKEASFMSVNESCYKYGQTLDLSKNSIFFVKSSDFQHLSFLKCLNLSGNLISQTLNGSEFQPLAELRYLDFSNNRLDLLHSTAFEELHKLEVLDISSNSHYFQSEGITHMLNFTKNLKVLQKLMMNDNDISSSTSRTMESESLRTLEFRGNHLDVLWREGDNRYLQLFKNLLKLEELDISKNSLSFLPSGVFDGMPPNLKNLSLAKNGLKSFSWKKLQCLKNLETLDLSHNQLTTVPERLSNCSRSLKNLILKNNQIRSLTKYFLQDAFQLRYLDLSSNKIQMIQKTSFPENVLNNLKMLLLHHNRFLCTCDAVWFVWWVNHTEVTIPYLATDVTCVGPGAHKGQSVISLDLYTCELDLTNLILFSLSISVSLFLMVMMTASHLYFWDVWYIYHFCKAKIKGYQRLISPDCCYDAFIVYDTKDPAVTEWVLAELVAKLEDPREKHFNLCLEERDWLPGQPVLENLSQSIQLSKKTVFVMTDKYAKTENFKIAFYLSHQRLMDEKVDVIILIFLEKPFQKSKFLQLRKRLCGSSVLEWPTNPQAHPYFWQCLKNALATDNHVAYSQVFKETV
How it was run: (§1)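 Read-out is SEAP colour from HEK-Blue Detection medium after 22 h at 37 °C, converted to percent inhibition between agonist-plus-DMSO and reference-inhibitor wells. Receptor-overexpressing HEK-Blue cells received compound over 0.05 nM–50 μM for 30 min before agonist: gardiquimod 7.5 μM for TLR7, R848 15.9 μM for TLR8, ODN2006 5 nM for TLR9.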

human TLR8 = target: T2, human TLR8 (Homo sapiens, UniProt Q9NR97); assay: TLR8 inhibition reporter assay (HEK-Blue cells, secreted embryonic alkaline phosphatase reporter); conditions: HEK-Blue cells overexpressing human TLR8, stimulated with R848 15.9 μM; read-out: TLR 8 IC50
T2 construct: host or cells: HEK-Blue cells (HEK293-derived reporter line)
T2 sequence (Q9NR97 27-1041): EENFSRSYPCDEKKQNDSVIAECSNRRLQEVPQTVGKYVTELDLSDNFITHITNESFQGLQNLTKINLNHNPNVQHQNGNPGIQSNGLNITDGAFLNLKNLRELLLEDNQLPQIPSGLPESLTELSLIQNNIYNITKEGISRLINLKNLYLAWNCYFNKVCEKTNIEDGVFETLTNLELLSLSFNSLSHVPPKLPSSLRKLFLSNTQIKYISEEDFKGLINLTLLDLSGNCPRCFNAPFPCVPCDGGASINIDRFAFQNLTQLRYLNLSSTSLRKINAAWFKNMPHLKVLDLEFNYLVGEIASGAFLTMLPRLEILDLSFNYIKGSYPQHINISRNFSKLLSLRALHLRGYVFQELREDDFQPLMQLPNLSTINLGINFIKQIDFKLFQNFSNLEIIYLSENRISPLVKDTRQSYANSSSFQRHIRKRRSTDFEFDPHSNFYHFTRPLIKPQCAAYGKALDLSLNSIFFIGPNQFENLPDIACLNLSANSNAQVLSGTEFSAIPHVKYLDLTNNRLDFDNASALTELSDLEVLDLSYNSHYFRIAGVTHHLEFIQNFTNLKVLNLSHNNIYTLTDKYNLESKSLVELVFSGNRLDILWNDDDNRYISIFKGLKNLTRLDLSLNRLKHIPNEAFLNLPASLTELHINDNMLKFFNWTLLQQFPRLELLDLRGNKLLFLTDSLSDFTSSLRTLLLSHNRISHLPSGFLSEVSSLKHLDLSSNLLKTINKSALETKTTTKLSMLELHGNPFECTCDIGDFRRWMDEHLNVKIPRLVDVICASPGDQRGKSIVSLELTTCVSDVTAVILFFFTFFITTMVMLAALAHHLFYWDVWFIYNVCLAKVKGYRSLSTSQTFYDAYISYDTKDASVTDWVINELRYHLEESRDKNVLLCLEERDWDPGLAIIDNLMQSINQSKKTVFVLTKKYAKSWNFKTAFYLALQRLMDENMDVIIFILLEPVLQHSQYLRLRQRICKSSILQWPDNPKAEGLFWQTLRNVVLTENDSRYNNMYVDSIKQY
How it was run: as §1

human TLR9 = target: T3, human TLR9 (Homo sapiens, UniProt Q9NR96); assay: TLR9 inhibition reporter assay (HEK-Blue cells, secreted embryonic alkaline phosphatase reporter)
T3 construct: host or cells: HEK-Blue cells (HEK293-derived reporter line)
T3 sequence (Q9NR96 26-1032): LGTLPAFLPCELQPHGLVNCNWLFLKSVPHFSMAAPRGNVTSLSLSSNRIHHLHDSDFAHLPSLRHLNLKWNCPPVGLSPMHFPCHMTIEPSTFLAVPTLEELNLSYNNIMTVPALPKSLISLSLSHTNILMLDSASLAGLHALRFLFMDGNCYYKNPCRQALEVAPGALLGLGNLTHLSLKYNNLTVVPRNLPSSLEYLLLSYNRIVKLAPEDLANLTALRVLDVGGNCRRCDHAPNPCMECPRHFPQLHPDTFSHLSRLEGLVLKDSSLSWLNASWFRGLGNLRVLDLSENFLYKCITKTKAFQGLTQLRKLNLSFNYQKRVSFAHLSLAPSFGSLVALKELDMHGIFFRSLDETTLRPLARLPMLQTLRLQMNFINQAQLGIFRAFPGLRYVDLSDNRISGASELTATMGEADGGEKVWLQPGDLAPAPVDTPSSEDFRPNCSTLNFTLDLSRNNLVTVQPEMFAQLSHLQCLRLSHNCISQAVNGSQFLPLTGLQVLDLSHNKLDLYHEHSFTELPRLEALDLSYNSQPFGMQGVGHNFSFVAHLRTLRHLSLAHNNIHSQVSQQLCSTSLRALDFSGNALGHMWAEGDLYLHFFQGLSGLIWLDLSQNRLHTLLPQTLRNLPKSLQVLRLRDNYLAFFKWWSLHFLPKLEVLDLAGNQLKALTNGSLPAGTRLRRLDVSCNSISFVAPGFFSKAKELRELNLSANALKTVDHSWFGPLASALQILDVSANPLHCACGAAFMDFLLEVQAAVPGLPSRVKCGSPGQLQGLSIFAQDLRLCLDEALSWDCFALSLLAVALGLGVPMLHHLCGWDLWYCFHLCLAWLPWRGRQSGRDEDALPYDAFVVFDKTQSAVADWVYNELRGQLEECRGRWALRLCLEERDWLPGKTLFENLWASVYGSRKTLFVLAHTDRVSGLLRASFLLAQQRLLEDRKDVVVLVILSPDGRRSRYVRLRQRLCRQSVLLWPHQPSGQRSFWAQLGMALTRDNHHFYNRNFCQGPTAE
How it was run: as §1

[1] = HEK-Blue cells overexpressing human TLR9, stimulated with ODN2006 5 nM, read-out: TLR 9 IC50
[2] = HEK-Blue human TLR9 reporter cells
[3] = HEK-Blue cells overexpressing human TLR9, stimulated with ODN2006 5 nM, 22 hour incubation, reporter readout

IC50 (human TLR7) [nM]	IC50 (human TLR8) [nM]	IC50 (human TLR9) [nM]	IC50 (human TLR9; [1]) [nM]	IC50 (human TLR9; [2]) [nM]	IC50 (human TLR9; [3]) [nM]	Structure (SMILES)
> 50000	> 50000	940	943			Cn1c(-c2ccc(S(C)(=O)=O)cc2)nc2cc(C3CCN(C4CCN(C5CCC5)CC4)CC3)c(F)cc21 [Example 243, 5-(1′-cyclobutyl-[1,4′-bipiperidin]-4-yl)-6-fluoro-1-methyl-2-(4-(methylsulfonyl)phenyl)-1H-benzo[d]imidazole]
21700	> 50000		147	150		Cn1c(-c2ccc(S(C)(=O)=O)cc2)nc2c(F)cc(C3CCN(C4CC5CCC(C4)N5C4CCC4)CC3)cc21 (single isomer, unassigned) [Example 292, 6-(1-(8-cyclobutyl-8-azabicyclo[3.2.1]octan-3-yl)piperidin-4-yl)-4-fluoro-1-methyl-2-(4-(methylsulfonyl)phenyl)-1H-benzo[d]imidazole]
11000	> 50000		20		20	COc1ccc(-c2nc3c(C)cc(C4CCN(C5CCN(C(C)C)CC5)CC4)cc3n2C)cc1OC [Example 45, 2-(3,4-dimethoxyphenyl)-6-(1′-isopropyl-[1,4′-bipiperidin]-4-yl)-1,4-dimethyl-1H-benzo[d]imidazole]
5600	48700	140	140			Cn1c(-c2ccc(S(C)(=O)=O)cc2)nc2cc(C3CCN(C4CC5CCC(C4)N5CC4CC4)CC3)cc(F)c21 (centres unmarked) [Example 218, 5-(1-(8-(cyclopropylmethyl)-8-azabicyclo[3.2.1]octan-3-yl)piperidin-4-yl)-7-fluoro-1-methyl-2-(4-(methylsulfonyl)phenyl)-1H-benzo[d]imidazole]
2900	14900		76	76		COc1cc(-c2nc3c(C)cc(C4CCN(C5CC6CCC(C5)N6CC(C)C)CC4)cc3[nH]2)cn2ncnc12 (centres unmarked) [Example 359, 6-(6-(1-(8-isobutyl-8-azabicyclo[3.2.1]octan-3-yl)piperidin-4-yl)-4-methyl-1H-benzo[d]imidazol-2-yl)-8-methoxy-[1,2,4]triazolo[1,5-a]pyridine]
1000	18800		98		98	CN(C)C1CCN(Cc2ccc(-c3ccc4nc(-c5ccccc5S(C)(=O)=O)n(C)c4c3)cc2)CC1 [Example 379, N,N-dimethyl-1-(4-(1-methyl-2-(2-(methylsulfonyl)phenyl)-1H-benzo[d]imidazol-6-yl)benzyl)piperidin-4-amine]
> 50000	> 50000	3600	3570			Cn1c(-c2ccc(S(C)(=O)=O)cc2)nc2cc(C3CCN(C4CCN(C5COC5)CC4)CC3)c(F)cc21 [Example 244, 6-fluoro-1-methyl-2-(4-(methylsulfonyl)phenyl)-5-(1′-(oxetan-3-yl)-[1,4′-bipiperidin]-4-yl)-1H-benzo[d]imidazole]
> 50000	> 50000	190	186			Cn1c(-c2ccc(S(C)(=O)=O)cc2)nc2c(F)c(C3CCN(C4CC5CCC(C4)N5CC4CC4)CC3)ccc21 (single isomer, unassigned) [Example 192, 5-(1-(8-(cyclopropylmethyl)-8-azabicyclo[3.2.1]octan-3-yl)piperidin-4-yl)-4-fluoro-1-methyl-2-(4-(methylsulfonyl)phenyl)-1H-benzo[d]imidazole]
16000	> 50000		173		170	COc1ccc(-c2nc3cc(C4CCN(C5CCN(CC(C)C)CC5)CC4)ccc3n2C)cc1OC [Example 34, 2-(3,4-dimethoxyphenyl)-5-(1′-isobutyl-[1,4′-bipiperidin]-4-yl)-1-methyl-1H-benzo[d]imidazole]
> 50000	> 50000		296	300		Cc1cc(C2CCN(C3CC4CCC(C3)N4C3CCC3)CC2)cc2[nH]c(-c3ccc(S(C)(=O)=O)cc3)nc12 (centres unmarked) [Example 334, 6-(1-(8-cyclobutyl-8-azabicyclo[3.2.1]octan-3-yl)piperidin-4-yl)-4-methyl-2-(4-(methylsulfonyl)phenyl)-1H-benzo[d]imidazole]
20000	> 50000		130		130	COc1ccc(-c2nc3c(C)cc(C4CC5CCC(C4)N5C4CCN(C5CC5)CC4)cc3n2C)cc1OC (centres unmarked) [Example 51, 6-(8-(1-cyclopropylpiperidin-4-yl)-8-azabicyclo[3.2.1]octan-3-yl)-2-(3,4-dimethoxyphenyl)-1,4-dimethyl-1H-benzo[d]imidazole]
> 50000	> 50000				950	CC(C)N1CCC(N2CCC(c3ccc4nc(-c5ccc(S(C)(=O)=O)cc5)[nH]c4c3F)CC2)CC1 [Example 87, 7-fluoro-6-(1′-isopropyl-[1,4′-bipiperidin]-4-yl)-2-(4-(methylsulfonyl)phenyl)-1H-benzo[d]imidazole]
